Assay results from US4016042A, “Substrate for the quantitative determination of enzymes” (Pentapharm A.G., priority 1974, dated 1977).
Structures can show the parent of a compound that is named as a salt. Non-standard residues stand in square brackets, D forms with d. Residues, ends and D or L forms follow the SMILES beside them. *: point of attachment. Cha = N[C@@H](CC1CCCCC1)C(=O)O; pNA = O=[N+]([O-])c1ccc(N*)cc1; Phg = N[C@H](C(=O)O)c1ccccc1; Tos = Cc1ccc(S(=O)(=O)*)cc1; 4Abz = Nc1ccc(C(=O)O)cc1; βNA = c1ccc2cc(N*)ccc2c1; Cbz = O=C(OCc1ccccc1)*; Bz = O=C(c1ccccc1)*; Ahx = NCCCCCC(=O)O

How the values were obtained:
Type in all cases: biochemical
plasma kallikrein = plasma kallikrein (Homo sapiens, UniProt P03952); test: Activity of plasma kallikrein measured with the substrates at constant substrate and enzyme concentrations; settings: split product
Protocol: (§1) HCl, were used for the quantitative determination of various enzymes in blood plasma. The determination was carried out by taking advantage of the fact that the split product NH2 -R^2 formed by enzymatic hydrolysis of the substrate has a UV spectrum which differs from that of the substrate and is shifted toward higher wave lengths. Thus, N^α-Bz-Pro-Phe-Arg-pNA^.
(§2) The degree of the enzymatic hydrolysis of the substrate, which is proportional to the quantity of p-nitroaniline formed, can be easily determined by spectrophotometric measurement at 405 nm. […] The conditions are practically the same for the other substrates carrying a p-nitroanilino group as a chromogenic group. The spectrophotometric measurement was, therefore, carried out in all cases at 405 nm.

plasmin = plasmin (Homo sapiens, UniProt P00747); test: Activity of human plasmin measured with the substrates at constant substrate and enzyme concentrations; settings: split product
Protocol: as §1, §2

trypsin = molecular target: T1, trypsin (Bos taurus, UniProt P00760); test: Splitting by trypsin with liberation of pNA
T1 sequence (P00760 24-246): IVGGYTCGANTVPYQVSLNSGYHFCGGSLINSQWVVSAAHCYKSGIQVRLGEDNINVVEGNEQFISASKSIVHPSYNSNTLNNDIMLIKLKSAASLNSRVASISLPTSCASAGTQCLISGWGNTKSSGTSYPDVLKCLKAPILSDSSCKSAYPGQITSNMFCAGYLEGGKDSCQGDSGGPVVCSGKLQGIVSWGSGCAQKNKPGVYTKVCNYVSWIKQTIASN
Protocol: In a 250 ml three-necked flask 16.0 g (47 mmoles) of Cbo-Arg-OH.HCl, dried over P2 O5 in vacuo, were dissolved in 90 ml of absolute HMPTA in a moisture-free atmosphere at 20° C. To the resulting solution there was first added portionwise a solution of 4.74 g (47 mmoles) of Et3 N in 10 ml of HMPTA and then 16.4 g (100 mmoles) of p-nitrophenylisocyanate (100% excess) at room temperature. The reaction mixture was kept at room temperature for 24 hours, whereupon most of the HMPTA was distilled off in vacuo. The residue was extracted several times with 30% AcOH. The residue was discarded. The combined AcOH extracts were further purified by gel filtration on a "Sephadex G-15" column as described in Example 1, paragraph I (e). […] Elementary analysis and calculation from the empirical formula C20 H25 N6 O5 Cl gave the following values: C = 51.29% (51.67%); H = 5.48% (5.42%); N = 17.92% (18.08%); Cl = 7.50% (7.63%).

Sequence of plasmin (P00747 581-810 limits assumed): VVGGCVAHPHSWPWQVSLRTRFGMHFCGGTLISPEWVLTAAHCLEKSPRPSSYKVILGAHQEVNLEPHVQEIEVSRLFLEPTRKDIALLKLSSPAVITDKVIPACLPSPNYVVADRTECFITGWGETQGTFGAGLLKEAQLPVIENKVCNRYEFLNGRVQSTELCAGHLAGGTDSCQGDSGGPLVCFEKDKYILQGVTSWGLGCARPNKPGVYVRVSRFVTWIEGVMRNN
Sequence of plasmin (P00747 97-580 partner limits assumed): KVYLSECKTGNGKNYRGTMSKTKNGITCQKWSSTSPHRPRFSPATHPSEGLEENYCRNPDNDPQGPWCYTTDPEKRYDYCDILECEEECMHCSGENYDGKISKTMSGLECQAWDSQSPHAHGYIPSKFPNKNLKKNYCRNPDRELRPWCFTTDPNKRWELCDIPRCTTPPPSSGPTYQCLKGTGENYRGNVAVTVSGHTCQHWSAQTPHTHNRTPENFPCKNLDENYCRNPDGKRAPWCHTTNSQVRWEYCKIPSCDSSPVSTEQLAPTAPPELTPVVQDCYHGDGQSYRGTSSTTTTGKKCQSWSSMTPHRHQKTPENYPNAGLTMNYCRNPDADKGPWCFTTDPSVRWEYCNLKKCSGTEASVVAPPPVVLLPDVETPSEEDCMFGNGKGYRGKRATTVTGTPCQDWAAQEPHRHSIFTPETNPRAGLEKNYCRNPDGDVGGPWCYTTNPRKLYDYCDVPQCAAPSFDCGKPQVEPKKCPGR
Sequence of plasma kallikrein (P03952 391-638 limits assumed, species assumed): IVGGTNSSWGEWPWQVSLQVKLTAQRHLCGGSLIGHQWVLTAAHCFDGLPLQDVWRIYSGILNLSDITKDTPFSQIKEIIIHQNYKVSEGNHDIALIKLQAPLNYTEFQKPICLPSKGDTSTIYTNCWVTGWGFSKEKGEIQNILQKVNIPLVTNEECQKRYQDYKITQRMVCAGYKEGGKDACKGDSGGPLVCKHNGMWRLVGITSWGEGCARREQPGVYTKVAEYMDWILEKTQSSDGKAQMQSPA
Sequence of plasma kallikrein (P03952 20-390 partner limits assumed, species assumed): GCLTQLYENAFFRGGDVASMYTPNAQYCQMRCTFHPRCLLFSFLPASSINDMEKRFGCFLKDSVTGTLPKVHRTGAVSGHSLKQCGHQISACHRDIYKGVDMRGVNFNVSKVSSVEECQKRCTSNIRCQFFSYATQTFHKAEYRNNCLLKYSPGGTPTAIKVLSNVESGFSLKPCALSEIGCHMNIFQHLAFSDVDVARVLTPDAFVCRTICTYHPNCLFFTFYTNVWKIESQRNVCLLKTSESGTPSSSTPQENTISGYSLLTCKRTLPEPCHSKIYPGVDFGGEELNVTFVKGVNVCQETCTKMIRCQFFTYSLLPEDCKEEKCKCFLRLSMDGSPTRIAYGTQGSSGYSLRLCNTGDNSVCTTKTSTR

Molecule | Quantity of p-nitroaniline (pNA), β-naphthylamine (2-NA) or 4-methoxy-β-naphthylamine (4-MeO-2-NA) released within 1 minute by 1 BAEE unit of plasma kallikrein (plasma kallikrein) [nm] | Quantity of p-nitroaniline (pNA), β-naphthylamine (2-NA) or 4-methoxy-β-naphthylamine (4-MeO-2-NA) released within 1 minute by one C unit of human plasmin (plasmin) [nm] | splitting by trypsin (trypsin)
N^α -4-Aminomethyl-cyclohexylcarbonyl-Pro-Phe-Arg-pNA.2HCl [Substrate IX] | 65.1 | 600.0 | 
N=C(N)NCCC[C@H](NC(=O)[C@H](Cc1ccccc1)NC(=O)[C@@H]1CCCN1C(=O)Cc1ccc(N)cc1)C(=O)Nc1ccc([N+](=O)[O-])cc1 [Substrate XI, N^α-4-Aminophenyl-acetyl-Pro-Phe-Arg-pNA. 2HCl] | 72.1 | 230.0 | 
N=C(N)NCCC[C@H](NC(=O)[C@H](Cc1ccccc1)NC(=O)[C@@H]1CCCN1C(=O)CCCCCN)C(=O)Nc1ccc([N+](=O)[O-])cc1 [Substrate VIII, N^α -(ω-Aminocaproyl)-Pro-Phe-Arg-pNA.2HCl] (H-[Ahx]PFR-pNA) | 59.7 | 256.0 | 
N=C(N)NCCC[C@H](NC(=O)OCc1ccccc1)C(=O)Nc1ccc([N+](=O)[O-])cc1 [XIIIa, Cbo-Arg-pNA.HCl] |  |  | split by trypsin with liberation of pNA
N=C(N)NCCC[C@H](NC(=O)[C@H](Cc1ccccc1)NC(=O)[C@@H]1CCCN1C(=O)c1ccc(N)cc1)C(=O)Nc1ccc([N+](=O)[O-])cc1 [Substrate XII, N^α-4-Aminobenzoyl-Pro-Phe-Arg-pNA. 2HCl] (H-[4Abz]PFR-pNA) | 49.2 | 196.0 | 
N=C(N)NCCC[C@H](NC(=O)[C@H](Cc1ccccc1)NC(=O)[C@@H]1CCCN1C(=O)OCc1ccccc1)C(=O)Nc1ccc([N+](=O)[O-])cc1 [Substrate XIII, N^α-Cbo-Pro-Phe-Arg-pNA.HCl] (Cbz-Pro-Phe-Arg-pNA) | 109.9 | 176.1 | 
N=C(N)NCCC[C@H](NC(=O)[C@H](Cc1ccc(O)cc1)NC(=O)[C@@H]1CCCN1C(=O)c1ccccc1)C(=O)Nc1ccc([N+](=O)[O-])cc1 [Substrate XV, N^α-Bz-Pro-Tyr-Arg-pNA.HCl] (Bz-Pro-Tyr-Arg-pNA) | 71.0 | 73.8 | 
Cc1ccc(S(=O)(=O)N2CCC[C@H]2C(=O)N[C@@H](Cc2ccccc2)C(=O)N[C@@H](CCCNC(=N)N)C(=O)Nc2ccc([N+](=O)[O-])cc2)cc1 [Substrate X, N^α-Tos-Pro-Phe-Arg-pNA.HCl] (Tos-Pro-Phe-Arg-pNA) | 88.5 | 80.2 | 
N=C(N)NCCC[C@H](NC(=O)[C@H](Cc1ccccc1)NC(=O)[C@@H]1CCCN1C(=O)C1CCCCC1)C(=O)Nc1ccc([N+](=O)[O-])cc1 [Substrate V, N^α -cyclohexylcarbonyl-Pro-Phe-Arg-pNA.HCl] | 154.7 | 158.0 | 
N=C(N)NCCC[C@H](NC(=O)[C@H](Cc1ccccc1)NC(=O)[C@@H]1CCCN1C(=O)c1ccccc1)C(=O)Nc1ccc2ccccc2c1 [Substrate XVII, N^α-Bz-Pro-Phe-Arg-2-NA^. HCl] (Bz-Pro-Phe-Arg-βNA) | 44.1 | 95.4 | 
N=C(N)NCCC[C@H](NC(=O)[C@@H](NC(=O)[C@@H]1CCCN1C(=O)c1ccccc1)c1ccccc1)C(=O)Nc1ccc([N+](=O)[O-])cc1 [Substrate XVI, N^α-Bz-Pro-Ph.Gly-Arg-pNA.HCl] (Bz-Pro-[Phg]-Arg-pNA) | 9.1 | 16.2 | 
N=C(N)NCCC[C@H](NC(=O)[C@H](CC1CCCCC1)NC(=O)[C@@H]1CCCN1C(=O)c1ccccc1)C(=O)Nc1ccc([N+](=O)[O-])cc1 [Substrate XIV, N^α-Bz-Pro-CHA-Arg-pNA.HCl] (Bz-Pro-[Cha]-Arg-pNA) | 64.5 | 116.0 | 
N=C(N)NCCC[C@H](NC(=O)[C@H](Cc1ccccc1)NC(=O)[C@@H]1CCCN1)C(=O)Nc1ccc([N+](=O)[O-])cc1 [Substrate II, H-Pro-Phe-Arg-pNA.2HCl] (H-Pro-Phe-Arg-pNA) | 28.6 | 16.2 | 
N^α -Caproyl-Pro-Phe-Arg-pNA.HCl [Substrate IV] | 108.3 | 100.0 | 
CC(=O)N1CCC[C@H]1C(=O)N[C@@H](Cc1ccccc1)C(=O)N[C@@H](CCCNC(=N)N)C(=O)Nc1ccc([N+](=O)[O-])cc1 [Substrate III, N^α -Ac-Pro-Phe-Arg-pNA.HCl] (Ac-Pro-Phe-Arg-pNA) | 42.3 | 49.1 | 
COc1cc(NC(=O)[C@H](CCCNC(=N)N)NC(=O)[C@H](Cc2ccccc2)NC(=O)[C@@H]2CCCN2C(=O)c2ccccc2)cc2ccccc12 [Substrate XVIII, N^α-Bz-Pro-Phe-Arg-4-MeO-2-NA^. HCl] | 39.8 | 79.7 | 
Cc1ccc(C(=O)N2CCC[C@H]2C(=O)N[C@@H](Cc2ccccc2)C(=O)N[C@@H](CCCNC(=N)N)C(=O)Nc2ccc([N+](=O)[O-])cc2)cc1 [Substrate VI, N^α -4-Methyl-Bz-Pro-Phe-Arg-pNA.HCl] | 78.4 | 142.0 | 
